tested on: RSV strain A2; experiment: Antiviral detection test against RSV strain A2 based on ELISA method (Hep-2 cells); format: cell-based, Respiratory Syncytial Virus; conditions: RSV A2 virus strain, Hep-2 cells, ELISA OD450
Procedure: Test Example 1: Antiviral detection test of small molecules against RSV strain A2 based on ELISA method
• Source of cell line: Nanjing Kebai Biotechnology Co., Ltd. • Cell type: human laryngeal carcinoma epithelial cells Hep-2
• 96-well culture plate (Cat.No. 3610, Corning Costar); • Fetal bovine serum (Cat.No. 10099-141, GIBCO); • DMEM medium (Cat.No. 11995500BT, GIBCO); • Envision 2104 microplate reader.
• 1. Day 1: The Hep-2 cells were seeded into a 96-well plate at a density of 1×10^4 cells/well; • 2. Day 2: • A. Compound dilution: The compound in the first well was diluted to 9 µM, and 3-fold gradient dilution was performed, with a total of 10 gradients; • B. The Hep-2 cell plate prepared on Day 1 was taken out from the incubator, the supernatant was discarded, and 100 PFU/well/50 µL of the RSV A2 virus was added to each well. The plate was stood at 37°C in a 5% CO2 incubator for 2 hours, the supernatant was aspirated and discarded, and then 100 µL of the gradient-diluted compound or DMEM maintenance medium containing 2% FBS was added to each well; • 3. Day 5: • A. Add fixative: The gradient-diluted compound or medium was discarded from the wells, and 100 µL/well of fixative (4% paraformaldehyde) was added. The plate was stood at room temperature for 10 minutes, and then was washed once with 250 µL PBS; • B. 100 µL/well of a blocking solution was added, and the plate was incubated at 37°C in a 5% CO2 incubator for 30 minutes; • C. After incubation, the detection antibody (Anti RSV Fpro) was added at 0.3 µg/50 µL/well (6 µg/mL), and the plate was incubated at 37°C in a 5% CO2 incubator for 1 hour; • D. After incubation, the HRP secondary antibody was added (diluted 10,000-fold with 0.2% BSA), and the plate was incubated at 37°C in a 5% CO2 incubator for 1 hour; • E. After incubation, the wells were washed for 4 times with PBST, 250 µL/well, each washing was allowed to stand for 5 minutes, and the liquid in the wells was shaken off after completion of the washing; • F. 100 µL/well of a development solution was added, the plate was incubated at room temperature in the dark for 20 minutes, and 50 µL/well of a reaction termination solution was added. The plate was tapped gently to mix the solutions, and the absorbance at 450 nm was measured using the microplate reader. • 4. Data analysis • Inhibition rate of the compound against the virus = 100% - (SC - CC)/(VC - CC) × 100% • SC: OD450 value of the sample (cells + test compound + virus) • CC: OD450 value of the normal growing cell control (cells) • VC: OD450 value of the virus growth control (cells + virus)
The software Graphpad Prism 6 was used, and the calculation formula XY-analysis/Nonlinear regression (curve fit)/Dose response-Inhibition/log (inhibition) vs. response-Variable slope (four parameters) was adopted to fit the IC50 curve and calculate the IC50 value.

Row | Compound | IC50
1 | 4-(4-(((3-aminooxetan-3-yl)methyl)amino)-6-methylquinazolin-2-yl)-1-((deuteromethyl)imino)-2,3,4,5-tetrahydro-1H-1λ^4-benzo[f][1,4]thiazepine-1-oxide [Example 2-24] | < 10 nM
2 | Cc1ccc2nc(N3CCS(=O)(=NC(N)=O)c4ccccc4C3)nc(NCC3(N)COC3)c2c1 (centres unmarked) [Example 2-16, 1-(4-(4-(((3-aminooxetan-3-yl)methyl)amino)-6-methylquinazolin-2-yl)-1-oxido-2,3,4,5-tetrahydro-1λ^4-benzo[f][1,4]thiazepin-1-ylidene)urea] | > 10 nM
3 | Cc1ccc2nc(N3CCS(=O)(=NCC4CCO4)c4ccccc4C3)nc(N3CC[C@@H](N)C3)c2c1 (some centres unmarked) [Example 4-39] | < 10 nM

same assay, conditions: human respiratory syncytial virus; RSV A2 virus strain, Hep-2 cells, ELISA OD450

Row | Compound | IC50
4 | CN=S1(=O)CCN(c2nc(NCC3(N)COC3)c3cc(C)ccc3n2)Cc2ccccc21 (centres unmarked) [Example 2-14, 4-(4-(((3-aminooxetan-3-yl)methyl)amino)-6-methylquinazolin-2-yl)-1-(methylimino)-2,3,4,5-tetrahydro-1H-1λ^4-benzo[f][1,4]thiazepine-1-oxide] | < 10 nM
5 | Cc1ccc2nc(N3CCS(=N)(=O)c4ccccc4C3)nc(NCC3(N)COC3)c2c1 (centres unmarked) [Example 2-23, 4-(4-(((3-aminooxetan-3-yl)methyl)amino)-6-methylquinazolin-2-yl)-1-imino-2,3,4,5-tetrahydro-1H-1λ^4-benzo[f][1,4]thiazepine-1-oxide] | < 10 nM
6 | Cc1ccc2nc(N3CCS(=O)(=NC4CC4)c4ccccc4C3)nc(NCC3(N)COC3)c2c1 (centres unmarked) [Example 2-26, 4-(4-(((3-aminooxetan-3-yl)methyl)amino)-6-methylquinazolin-2-yl)-1-(cyclopropylimino)-2,3,4,5-tetrahydro-1H-1λ^4-benzo[f][1,4]thiazepine-1-oxide] | < 10 nM
7 | CC(=O)N=S1(=O)CCN(c2nc(NCC3(N)COC3)c3cc(C)ccc3n2)Cc2ccccc21 (centres unmarked) [Example 2-31, N-(4-(4-(((3-aminooxetan-3-yl)methyl)amino)-6-methylquinazolin-2-yl)-1-oxido-2,3,4,5-tetrahydro-1λ^4-benzo[f][1,4]thiazepin-1-ylidene)acetamide] | < 10 nM
8 | Cc1ccc2nc(N3CCS(=O)(=NC(=O)C4(F)CC4)c4ccccc4C3)nc(NCC3(N)COC3)c2c1 (centres unmarked) [Example 2-32, N-(4-(4-(((3-aminooxetan-3-yl)methyl)amino)-6-methylquinazolin-2-yl)-1-oxido-2,3,4,5-tetrahydro-1λ^4-benzo[f][1,4]thiazepin-1-ylidene)-1-fluorocyclopropane-1-carboxamide] | < 10 nM
9 | CNC(=O)N=S1(=O)CCN(c2nc(NCC3(N)COC3)c3cc(C)ccc3n2)Cc2ccccc21 (centres unmarked) [Example 2-37, 1-(4-(4-(((3-aminooxetan-3-yl)methyl)amino)-6-methylquinazolin-2-yl)-1-oxido-2,3,4,5-tetrahydro-1λ^4-benzo[f][1,4]thiazepin-1-ylidene)-3-methylurea] | < 10 nM
10 | Cc1ccc2nc(N3CCS(=O)(=Nc4cnn(C)c4)c4ccccc4C3)nc(NCC3(N)COC3)c2c1 (centres unmarked) [Example 2-38, 4-(4-(((3-aminooxetan-3-yl)methyl)amino)-6-methylquinazolin-2-yl)-1-((1-methyl-1H-pyrazol-4-yl)imino)-2,3,4,5-tetrahydro-1H-1λ^4-benzo[f][1,4]thiazepine-1-oxide] | > 10 nM
11 | CCN=S1(=O)CCN(c2nc(NCC3(N)COC3)c3cc(C)ccc3n2)Cc2ccccc21 (centres unmarked) [Example 2-43, 4-(4-(((3-aminooxetan-3-yl)methyl)amino)-6-methylquinazolin-2-yl)-1-(ethylimino)-2,3,4,5-tetrahydro-1H-1λ^4-benzo[f][1,4]thiazepine-1-oxide] | < 10 nM
12 | NC1(CNc2nc(N3CCS(=O)(=NC4CC4)c4ccccc4C3)nc3ccc(C(F)F)cc23)COC1 (centres unmarked) [Example 2-46, 4-(4-(((3-aminooxetan-3-yl)methyl)amino)-6-(difluoromethyl)quinazolin-2-yl)-1-(cyclopropylimino)-2,3,4,5-tetrahydro-1H-1λ^4-benzo[f][1,4]thiazepine-1-oxide] | < 10 nM
13 | Cc1ccc2nc(N3CCS(=O)(=NC4CC4)c4ccccc4C3)nc(N3CC(O)(CN)C3)c2c1 (centres unmarked) [Example 4-2, 4-(4-(3-(aminomethyl)-3-hydroxyazetidin-1-yl)-6-methylquinazolin-2-yl)-1-(cyclopropylimino)-2,3,4,5-tetrahydro-benzo[f][1,4]thiazepine-1-oxide] | < 10 nM
14 | Cc1ccc2nc(N3CCS(=O)(=NCCF)c4ccccc4C3)nc(NCC3(N)COC3)c2c1 (centres unmarked) [Example 4-5, 4-(4-(((3-aminooxetan-3-yl)methyl)amino)-6-methylquinazolin-2-yl)-1-((2-fluoroethyl)imino)-2,3,4,5-tetrahydrobenzo[f][1,4]thiazepine-1-oxide] | < 10 nM
15 | Cc1ccc2nc(N3CCS(=O)(=NCC(F)F)c4ccccc4C3)nc(NCC3(N)COC3)c2c1 (centres unmarked) [Example 4-6, 4-(4-(((3-aminooxetan-3-yl)methyl)amino)-6-methylquinazolin-2-yl)-1-((2,2-difluoroethyl)imino)-2,3,4,5-tetrahydrobenzo[f][1,4]thiazepine-1-oxide] | < 10 nM
16 | Cc1ccc2nc(N3CCS(=O)(=NC4CC4)c4ccccc4C3)nc(N[C@@H]3CNC[C@H]3O)c2c1 (stereo partly drawn) [Example 4-10, 1-(cyclopropylimino)-4-(4-(((3R,4R)-4-hydroxypyrrolidin-3-yl)amino)-6-methylquinazolin-2-yl)-2,3,4,5-tetrahydro-benzo[f][1,4]thiazepine-1-oxide] | < 10 nM
17 | Cc1ccc2nc(N3CCS(=O)(=NC4CC4)c4ccccc4C3)nc(N[C@H]3C[C@@H](N)C3)c2c1 (stereo partly drawn) [Example 4-13, 4-(4-(((1R,3S)-3-aminocyclobutyl)amino)-6-methylquinazolin-2-yl)-1-(cyclopropylimino)-2,3,4,5-tetrahydro-benzo[f][1,4]thiazepine-1-oxide] | < 10 nM
18 | NC1(CNc2nc(N3CCS(=O)(=NC4CCC4)c4ccccc4C3)nc3ccc(C(F)F)cc23)COC1 (centres unmarked) [Example 4-16, 4-(4-(((3-aminooxetan-3-yl)methyl)amino)-6-(difluoromethyl)quinazolin-2-yl)-1-(cyclobutylimino)-2,3,4,5-tetrahydro-benzo[f][1,4]thiazepine-1-oxide] | < 10 nM
19 | N[C@@H]1CCN(c2nc(N3CCS(=O)(=NC4CC4)c4ccccc4C3)nc3ccc(C(F)F)cc23)C1 (some centres unmarked) [Example 4-28] | < 10 nM
20 | Cc1ccc2nc(N3CCS(=O)(=NC4CC4)c4ccccc4C3)nc(N3CC(N)(CO)C3)c2c1 (centres unmarked) [Example 4-32, 4-(4-(3-amino-3-(hydroxymethyl)azetidin-1-yl)-6-methylquinazolin-2-yl)-1-(cyclopropylimino)-2,3,4,5-tetrahydro-benzo[f][1,4]thiazepine-1-oxide] | < 10 nM
21 | Cc1ccc2nc(N3CCS(=O)(=NCCCC#N)c4ccccc4C3)nc(N3CC[C@@H](N)C3)c2c1 (some centres unmarked) [Example 4-47] | < 10 nM
22 | Cc1ccc2nc(N3CCS(=O)(=NCCC(C)(C)O)c4ccccc4C3)nc(N3CC[C@@H](N)C3)c2c1 (some centres unmarked) [Example 4-56] | < 10 nM
23 | COC(=O)C1(CN)CN(c2nc(N3CCS(=O)(=NC4CC4)c4ccccc4C3)nc3ccc(C)cc23)C1 (centres unmarked) [Example 4-57, methyl 3-(aminomethyl)-1-(2-(1-(cyclopropylimino)-1-oxido-1,2,3,5-tetrahydro-benzo[f][1,4]thiazepin-4-yl)-6-methylquinazolin-4-yl)azetidine-3-carboxylate] | < 10 nM
24 | CC(O)(CCN=S1(=O)CCN(c2nc(N3CC[C@H](N)C3)c3cc(C(F)F)ccc3n2)Cc2ccccc21)C(F)(F)F (stereo partly drawn) [Example 4-63, 4-(4-((S)-3-aminopyrrolidin-1-yl)-6-(difluoromethyl)quinazolin-2-yl)-1-((4,4,4-trifluoro-3-hydroxy-3-methylbutyl)imino)-2,3,4,5-tetrahydro-benzo[f] [1,4]thiazepine-1-oxide] | < 10 nM
25 | Cc1ccc2nc(N3CCS(=O)(=NCCCO)c4ccccc4C3)nc(N3CC[C@H](N)C3)c2c1 (some centres unmarked) [Example 4-64] | < 10 nM

same assay, conditions: ratio of IC50 values against RSV A2 virus strain; control compound AK0529

Row | Compound | AK0529 IC50 / IC50 of the compounds of the present invention
26 | 4-(4-(((3-aminooxetan-3-yl)methyl)amino)-6-methylquinazolin-2-yl)-1-((deuteromethyl)imino)-2,3,4,5-tetrahydro-1H-1λ^4-benzo[f][1,4]thiazepine-1-oxide [Example 2-24] | ratio ≥20
27 | NC1(CNc2nc(N3CCS(=O)(=NC4CC4)c4ccccc4C3)nc3ccc(C(F)F)cc23)COC1 (centres unmarked) [Example 2-46, 4-(4-(((3-aminooxetan-3-yl)methyl)amino)-6-(difluoromethyl)quinazolin-2-yl)-1-(cyclopropylimino)-2,3,4,5-tetrahydro-1H-1λ^4-benzo[f][1,4]thiazepine-1-oxide] | ratio ≥20
28 | NC1(CNc2nc(N3CCS(=O)(=NC4CCC4)c4ccccc4C3)nc3ccc(C(F)F)cc23)COC1 (centres unmarked) [Example 4-16, 4-(4-(((3-aminooxetan-3-yl)methyl)amino)-6-(difluoromethyl)quinazolin-2-yl)-1-(cyclobutylimino)-2,3,4,5-tetrahydro-benzo[f][1,4]thiazepine-1-oxide] | ratio ≥20
29 | COC(=O)C1(CN)CN(c2nc(N3CCS(=O)(=NC4CC4)c4ccccc4C3)nc3ccc(C)cc23)C1 (centres unmarked) [Example 4-57, methyl 3-(aminomethyl)-1-(2-(1-(cyclopropylimino)-1-oxido-1,2,3,5-tetrahydro-benzo[f][1,4]thiazepin-4-yl)-6-methylquinazolin-4-yl)azetidine-3-carboxylate] | ratio ≥20

— patent publication EP4745139A1, “COMPOUND FOR TREATING AND PREVENTING RESPIRATORY SYNCYTIAL VIRUS INFECTION DISEASES” (CSPC Zhongqi Pharmaceutical Technology (Shijiazhuang) Co., …, priority 2023, dated 2025)
